# Measurements taken from patent EP4463162B1, “CONNEXIN 43 FOR USE IN TREATING BRCA1/2-MUTATED CANCER” (Fundación Profesor Novoa Santos, priority 2022, dated 2023).
# Assays:
# HCC1937 cells [1] = assay: Proliferation assay (Cell Counting Kit-8); format: cell-based, human; conditions: Cx43_HCC1937 compared to EV_HCC1937; 100 and 200 µM olaparib, over 96 h, all concentrations and time points
# Protocol: Proliferation of tumour cell lines was evaluated using the Cell Counting Kit-8 (Dojindo Molecular Technologies). This kit comprises WST-8, a highly water-soluble tetrazolium salt, which upon reduction by cellular dehydrogenases of viable cells, gives rise to a yellow formazan dye that is solube in cell culture media and can be quantitated. Briefly, similar number of cells (1 000-5 000) were plated in 96-well plates (Corning) and left to grow for the desired time period under different treatment conditions. Then, medium was renewed (100 µL volume/well) and 10 µL of CCK-8 reagent were added to each well. Plates were incubated in the dark for 3 h at 37 °C, and absorbance was measured at 450 nm in a NanoQuant Infinite 200 plate reader (Tecan).
# Cell viability was either relativized to untreated controls for each cell line at each time point, in order to account for the already reduced proliferation of Cx43-restituted cells (top graph) or reported as raw absorbance value (bottom graph).
# To further characterize its involvement in BRCA1/2 mutated cancer, Cx43 was restituted by plasmid transfection in BRCA1 mutated TNBC and ovarian carcinoma cell lines, HCC1937 and SNU251, respectively. […]
# HCC1937 cells [2] = assay: Intracellular reactive oxygen species (ROS) measurement (DCFDA); format: cell-based, human; conditions: 96 h
# Protocol: Then, ROS production was determined using the DCFDA/H2DCFDA - Cellular ROS Assay Kit (Abcam) following manufacturer's instructions. […] Afterwards, all cell conditions were washed with 100 µL/well of 1X Buffer and then stained with 100 µL/well of 25 µM 2',7' -dichlorofluorescin diacetate (DCFDA) working solution for 45 min at 37 °C in the dark. DCFDA is a fluorogenic dye, deacetylated by cellular esterases to a non-fluorescent compound, eventually oxidized by ROS into the highly fluorescent 2', 7' -dichlorofluorescein (DCF). DCFDA solution was removed and cells were washed once with phenol red-free DMEM with 10 % FBS. They were left for 1 h at 37 °C and fluorescence was measured in a Synergy HTX plate reader (BioTek) at 485/+-20 nm (excitation) and 528/+-20 nm (emission).
# After ROS measurement, CCK-8 proliferation assay was performed. Briefly, medium was removed and replenished with 100 µL/well of complete RPMI. 10 µL of CCK-8 reagent were added to each well, and cells were incubated at 37 °C in the dark for 3 h. Absorbance was measured at 450 nm in a NanoQuant Infinite 200 plate reader (Tecan).
# Background fluorescence of phenol red-free DMEM with 10 % FBS was subtracted from all ROS fluorescence values, which were then normalized against their respective proliferation absorbance values. Each experimental condition was further normalized against its untreated counterpart. […]
# RAD51 and 53BP1 = RAD51 and 53BP1 immunofluorescence; format: cell-based, human; conditions: olaparib 100 µM, 96 h
# Protocol: 2 000-10 000 cells were plated on glass coverslips (Thermo Fisher Scientific) previously coated with poly-D-lysine hydrobromide (Sigma-Aldrich) and cultured until they were approximately 80 % confluent. They were washed with PBS, fixed with 4 % paraformaldehyde (PFA, Sigma-Aldrich) in PBS for 15 min at room temperature and rinsed twice with PBS. Next, cells were incubated with 0.1 M glycine (Sigma-Aldrich) in distilled water to quench PFA for 10 min at room temperature, and then their membranes were permeabilized with 0.2 % Triton X-100 (Sigma-Aldrich) in PBS for 10 min at room temperature. After two 5 min PBS washes, potential nonspecific antibody binding sites were blocked with 1 % bovine serum albumin (BSA; Sigma-Aldrich) diluted in PBST (PBS+0.1 % Tween 20; Sigma-Aldrich) for 30 min at room temperature. Cells were incubated overnight at 4 °C in the dark with primary antibody (see references in Table 3) diluted in 1 % BSA in PBST. The next day, cells were rinsed three times in PBS for 10 min each, and then incubated 1 h at room temperature in the dark with secondary antibody (see references in Table 3) diluted in 1 % BSA in PBST. After that, they were washed three times with PBS for 5 min each, and their nuclei were stained with 1 µg/mL Hoechst (Invitrogen, Thermo Fisher Scientific) diluted in PBS for 10 min. […]
# Cx43_HCC1937 cells = assay: 48 h olaparib dose-response curve, cell viability; format: cell-based; conditions: Homo sapiens
structure (smiles),measurement,setting,value
"O=C(c1cc(Cc2n[nH]c(=O)c3ccccc23)ccc1F)N1CCN(C(=O)C2CC2)CC1 [Olaparib, olaparib]",cell viability (proliferation assay),HCC1937 cells [1],robust and significant decrease in cell viability
same,ROS production,"HCC1937 cells [2]; Cx43_HCC1937, olaparib 50 and 100 µM",increased
same,ROS production,"HCC1937 cells [2]; EV_HCC1937, olaparib 50 and 100 µM, dose-dependent",diminished
same,53BP1 foci,RAD51 and 53BP1; EV and Cx43_HCC1937,seemed to rise upon olaparib treatment in both cell lines alike
same,RAD51 foci,RAD51 and 53BP1; EV vs Cx43_HCC1937,increased just in EV_HCC1937 cells
same,IC50,Cx43_HCC1937 cells,350 µM
